What all share (type): functional
Experiment [1] has as its system Mycobacterium tuberculosis. Put plainly: Antimicrobial activity against Mycobacterium tuberculosis H37Rv subculture 1 with wild type katG mutation.
The test system of experiment [2] is Mycobacterium tuberculosis. Put plainly: Antimicrobial activity against Mycobacterium tuberculosis H37Rv subculture 3 with katG D329H mutant.
Experiment [3] concerns Mycobacterium tuberculosis. Put plainly: Antimicrobial activity against Mycobacterium tuberculosis H37Rv subculture 4 with wild type katG mutation in presence of catalase activity.
Experiment [4] deals with Mycobacterium tuberculosis. In words: Antimicrobial activity against Mycobacterium tuberculosis H37Rv subculture 5 with wild type katG mutation in absence of catalase activity.
For experiment [5], the system named is Mycobacterium tuberculosis. Put plainly: Antimicrobial activity against Mycobacterium tuberculosis H37Rv subculture 6 with katG W328R mutant.

Values after ≈ are worked out from the molar mass of the structure shown. Where only a bound is given, the exact number is not on record here.

Regarding `NNC(=O)c1ccncc1` [ISONIAZID], the minimal inhibitory concentration (MIC) in experiment [1] was 0.4 µg/mL (≈ 2.92 µM); in experiment [2] it was >2 µg/mL; in experiment [3] it was >2 µg/mL; in experiment [4] it was 0.4 µg/mL (≈ 2.92 µM); in experiment [5], >2 µg/mL.

As usually defined, the MIC is the smallest concentration in the dilution series that meets the test's criterion for growth inhibition.
